Measurements: publication PMC2990587, “Central nervous system penetration and enhancement of temozolomide activity in childhood medulloblastoma models by poly(ADP-ribose) polymerase inhibitor AG-014699” (British Journal of Cancer, 2010)
Entries after “also recorded” stand apart in the source; their conditions may differ.

Columns and labels:
PARP-1 [1] = biological target: T1, PARP-1 (Mus musculus, UniProt P11103); test: PARP activity in brain homogenates after AG-014699 dosing; format: in vivo
T1 construct: from tissue; host or cells: brain of CD-1 nude mice
Procedure: One or four daily doses of PARP inhibitor AG-014699 (1 mg kg^−1 intraperitoneally (i.p.)) were given to CD-1 nude mice bearing established D283Med xenografts. At 0.5, 2, 6 and 24 h after the initial or fourth daily dose of AG-014699, three animals per time point were bled by cardiac puncture under general anaesthesia, and then killed. Plasma was separated from the blood samples using standard methods and stored at −80°C. The brains and tumours were removed, snap frozen in liquid nitrogen and stored at −80°C before analysis. Blood, tumour and brain tissue were removed from three untreated control animals and processed in the same way.
PARP activity was determined in homogenates of subcutaneous D283Med xenografts and brain tissue (see above). Maximally stimulated PARP activity was measured in replicate samples (n⩾3) of a 1 : 1000 dilution of the homogenate as described for permeabilised D283Med cells (see above). Data were calculated as pmol PAR per mg protein by reference to the PAR standard curve and protein content of the sample and expressed as a percentage of the corresponding tissue from the saline-treated control animals. The mean PARP activity in xenograft and brain samples taken at each time point was expressed as a percentage of the mean PARP activity of control xenografts from untreated mice (n=3).

PARP-1 [2] = biological target: PARP-1 (Homo sapiens, UniProt P09874); test: PARP activity in permeabilised D283Med cells (10H anti-PAR immunoassay); format: cell-based
Procedure: Inhibition of PARP activity in 5000 exponentially growing D283Med cells was measured following treatment with a range of AG-014699 concentrations (0–1 μM), in comparison with DMSO-only controls. Maximally stimulated PARP activity was measured in replicate samples (n⩾3) of permeabilised cells by immunological detection of the amount of poly(ADP-ribose) (PAR) formed, using 10H anti-PAR antibody, during a 6-min incubation with NAD^+ and oligonucleotide (substrate and activator) by reference to a PAR (Biomol Research Labs, Plymouth, PA, USA) standard curve using a GCLP-validated assay described previously ([Plummer et al, 2005]).

D384Med cells = test: XTT growth inhibition, D384Med; format: cell-based, human
Procedure: (§1) Cell growth inhibition was estimated in exponentially growing D425Med, D283Med and D384Med cells in 96-well plates. Seeding densities of 1 × 10^3, 3 × 10^3 and 3 × 10^3 cells, respectively, ensured exponential growth for the duration of the experiment. At 24 h (D384Med) or 48 h (D283Med and D425Med) after seeding, cells were exposed to varying concentrations of temozolomide, as described in the Results, in the presence or absence of 0.4 μM AG-014699, a concentration previously shown to enhance temozolomide cytotoxicity in adult tumour cell lines ([Thomas et al, 2007]). After 3 days (D425Med and D384Med) or 5 days (D283Med) of culture (equivalent to approximately three cell divisions), the cell viability was quantified using an XTT cell proliferation kit assay (Roche, Mannheim, Germany), according to the manufacturer's instructions. Cell growth was expressed as a percentage in relation to DMSO or 0.4 μM AG-014699-alone controls. The concentration of temozolomide, alone or in combination with AG-014699, that inhibited growth by 50% (GI50) was calculated from computer-generated curves (GraphPad Software, San Diego, CA, USA). The potentiation factor50 (PF50) is defined as the ratio of […]. All data were from at least three independent experiments.

D283Med cells = test: XTT growth inhibition, D283Med; format: cell-based, human
Procedure: as §1

[3] = Toxicity (body weight loss) in tumour-bearing mice; format: in vivo, mouse
Procedure: CD-1 nude mice bearing palpable, established subcutaneous D425Med, D283Med and D384Med xenografts were treated with normal saline (control animals), temozolomide (68 mg kg^−1 per os (p.o.)) or AG-014699 (1 mg kg^−1 i.p.) alone or in combination, daily for 5 days (five mice per group). For drug combinations, AG-014699 was administered immediately after administering temozolomide. Tumour volumes, determined from two-dimensional calliper measurements and the equation a^2 × b/2 (where a is the […] of the tumour), were monitored for the experimental period (up to 100 days), and are presented for each group of mice as median relative tumour volume (RTV) values. Relative tumour volume 1 is the tumour volume on the initial day of treatment (day 0), and RTV4 is the tumour volume four times that on the initial day of treatment. Tumour growth delay (TGD) is defined as the time to RTV4 in drug-treated mice compared with the time to RTV4 in control (vehicle alone) mice. Median tumour volume is shown, rather than the mean, as this is generally accepted as the most statistically reliable representation of the average growth rate of tumours in a small group of mice, if a normal distribution of tumour volumes cannot be assumed. Tumour growth delay was calculated as: median time to RTV4 in treated group−median time to RTV4 in control group. Percentage enhancement was calculated as 100 × (TGD TMZ+AG-014699/TGD TMZ alone)−100 ([Calabrese et al, 2004]).

Chain of PARP-1 (Homo sapiens, UniProt P09874) (P09874 whole entry): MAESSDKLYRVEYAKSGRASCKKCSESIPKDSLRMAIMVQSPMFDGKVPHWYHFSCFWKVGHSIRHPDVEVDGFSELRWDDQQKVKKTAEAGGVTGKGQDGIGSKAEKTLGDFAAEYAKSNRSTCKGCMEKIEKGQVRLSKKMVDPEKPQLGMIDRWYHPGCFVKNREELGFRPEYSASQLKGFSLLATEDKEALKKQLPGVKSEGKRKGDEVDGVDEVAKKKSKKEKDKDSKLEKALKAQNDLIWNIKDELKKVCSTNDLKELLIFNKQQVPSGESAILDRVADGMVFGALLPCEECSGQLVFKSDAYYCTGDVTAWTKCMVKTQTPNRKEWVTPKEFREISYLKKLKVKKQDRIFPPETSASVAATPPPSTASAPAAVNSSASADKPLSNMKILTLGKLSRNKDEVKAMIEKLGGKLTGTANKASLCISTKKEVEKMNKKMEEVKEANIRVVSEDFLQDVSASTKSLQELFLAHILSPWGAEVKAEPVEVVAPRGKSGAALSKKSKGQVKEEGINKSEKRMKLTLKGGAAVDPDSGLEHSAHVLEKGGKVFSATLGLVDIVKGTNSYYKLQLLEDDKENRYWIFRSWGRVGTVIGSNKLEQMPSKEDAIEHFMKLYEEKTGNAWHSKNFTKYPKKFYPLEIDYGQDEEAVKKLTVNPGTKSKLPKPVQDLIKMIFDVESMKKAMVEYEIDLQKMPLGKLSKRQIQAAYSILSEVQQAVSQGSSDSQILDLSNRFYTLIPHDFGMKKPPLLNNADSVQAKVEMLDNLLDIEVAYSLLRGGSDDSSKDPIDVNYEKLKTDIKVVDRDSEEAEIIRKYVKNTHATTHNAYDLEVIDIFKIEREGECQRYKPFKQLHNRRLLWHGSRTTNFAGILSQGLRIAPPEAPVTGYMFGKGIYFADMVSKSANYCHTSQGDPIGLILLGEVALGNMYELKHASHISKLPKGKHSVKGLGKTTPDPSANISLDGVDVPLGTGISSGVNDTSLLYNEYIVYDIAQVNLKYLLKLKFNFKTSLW
T1 sequence (P11103 whole entry): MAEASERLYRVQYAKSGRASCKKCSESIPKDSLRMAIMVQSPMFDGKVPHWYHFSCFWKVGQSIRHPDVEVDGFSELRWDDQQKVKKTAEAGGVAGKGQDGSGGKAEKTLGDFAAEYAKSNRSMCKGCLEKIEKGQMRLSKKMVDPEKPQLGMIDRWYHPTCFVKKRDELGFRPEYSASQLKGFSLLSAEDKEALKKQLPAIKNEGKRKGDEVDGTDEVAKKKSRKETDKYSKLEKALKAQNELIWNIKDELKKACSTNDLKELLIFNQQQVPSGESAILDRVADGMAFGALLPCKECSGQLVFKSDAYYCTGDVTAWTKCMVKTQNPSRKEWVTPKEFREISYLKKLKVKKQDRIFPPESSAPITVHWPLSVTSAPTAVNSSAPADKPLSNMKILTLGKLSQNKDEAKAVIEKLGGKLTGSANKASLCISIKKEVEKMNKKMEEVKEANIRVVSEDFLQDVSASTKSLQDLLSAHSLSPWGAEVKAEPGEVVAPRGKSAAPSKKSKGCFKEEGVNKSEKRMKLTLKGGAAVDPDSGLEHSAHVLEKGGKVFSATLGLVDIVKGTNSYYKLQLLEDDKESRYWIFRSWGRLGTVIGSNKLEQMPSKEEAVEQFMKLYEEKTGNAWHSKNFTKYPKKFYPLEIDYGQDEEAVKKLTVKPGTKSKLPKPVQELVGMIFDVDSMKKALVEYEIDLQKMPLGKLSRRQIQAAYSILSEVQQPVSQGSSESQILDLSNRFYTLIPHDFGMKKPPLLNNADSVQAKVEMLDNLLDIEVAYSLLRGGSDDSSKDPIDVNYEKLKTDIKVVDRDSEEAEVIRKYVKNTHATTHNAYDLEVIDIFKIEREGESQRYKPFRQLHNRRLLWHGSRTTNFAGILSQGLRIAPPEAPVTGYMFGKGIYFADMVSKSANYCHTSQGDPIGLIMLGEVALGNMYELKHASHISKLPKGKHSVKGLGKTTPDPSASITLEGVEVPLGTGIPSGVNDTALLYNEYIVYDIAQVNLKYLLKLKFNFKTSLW

Question: Which “PARP activity in brain” value (PARP-1 [1]; 24 h after fourth daily dose 1 mg kg−1 i.p.) does the source give for `CNCc1ccc(-c2[nH]c3cc(F)cc4c3c2CCNC4=O)cc1` [AG-014699] here?
Answer: near-normal activity

Question: What about the “Reduction of PARP activity in brain” value (PARP-1 [1]; 24 h after single dose 1 mg kg−1 i.p.) of the same compound?
Answer: approximately 40%

Question: And the “Reduction of PARP activity in brain tissue” value (PARP-1 [1]; abstract, time not stated)?
Answer: ≥ 75%

Question: What about the “Reduction of PARP activity in brain” value (PARP-1 [1]; first 2 h after single dose 1 mg kg−1 i.p.) of the same compound?
Answer: around 75%

Question: And the “Inhibition of PARP-1 activity” value (PARP-1 [2]; 0.1 μM AG-014699)?
Answer: 80%

Question: What about the “Inhibition of PARP-1 activity” value (PARP-1 [2]; 0.4 μM AG-014699) of the same compound?
Answer: > 95%

Question: And the inhibition at 0.1 µM (PARP-1 [2]; D283 Med, 0.1 μM AG-014699)?
Answer: 81.1%

Question: And the inhibition at 0.4 µM (PARP-1 [2]; D283 Med, 0.4 μM AG-014699)?
Answer: 96.8%

Question: What about the inhibition at 1 µM (PARP-1 [2]; D283 Med, 1 μM AG-014699) of the same compound?
Answer: 97.1%

Question: What about the “Sensitisation to temozolomide by AG-014699” value (D384Med cells; D384Med (MGMT+ MMR+), 0.4 μM AG-014699) of the same compound?
Answer: > 3 fold

Question: What about the “Growth inhibition by AG-014699 alone” value (D384Med cells; D384Med, 0.4 μM, data not shown) of the same compound?
Answer: not growth inhibitory

Question: And the PF50 (D384Med cells; D384Med, potentiation of temozolomide by 0.4 μM AG-014699)?
Answer: 3.8±1

Question: What about the “Sensitisation to temozolomide by AG-014699” value (D283Med cells; D283Med (MMR-defective), 0.4 μM AG-014699) of the same compound?
Answer: 20 fold

Question: And the “Growth inhibition by AG-014699 alone” value (D283Med cells; D283Med, 0.4 μM, data not shown)?
Answer: not growth inhibitory

Question: What about the PF50 (D283Med cells; D283Med, potentiation of temozolomide by 0.4 μM AG-014699) of the same compound?
Answer: 19±4.7

Question: What about the “Toxicity of AG-014699 alone” value ([3]; 1 mg kg−1 i.p. daily five times) of the same compound?
Answer: not toxic; also recorded: did not cause any marked toxicity

Question: And the Body weight loss ([3]; daily x5, TMZ 68 mg kg−1 p.o., AG-014699 1 mg kg−1 i.p.)?
Answer: 1±1%
